# What was measured:
# anaesthetised rats = experiment: intravenous toxicity in anaesthetised rats; type: in vivo; details: intravenously, two anaesthetised rats, ten times the dose giving approximate 50% inhibition of gastric secretion in the anaesthetised rat
# Procedure: (§1) No overt toxicity or side effects were noted during the rat or dog tests. The compounds N-cyano-5-(4-[2-propylguanidino]pyrimid-2-yl)valeramidino was administered intravenously to groups of two anaesthetised rats and four conscious mice at doses which were respectively ten times and one hundred times the dose, in mg./kg., which produced an approximate 50% inhibition of gastric secretion in the anaesthetised rat.
# conscious mice = experiment: intravenous toxicity in conscious mice; type: in vivo, mouse; details: intravenously, four conscious mice, one hundred times the dose giving approximate 50% inhibition of gastric secretion in the anaesthetised rat
# Procedure: as §1
compound,measurement,setting,value
"CCCN=C(N)Nc1ccnc(CCCCC(=N)NC#N)n1 [Example 2, N-cyano-5-(4-[2-propylguanidino]pyrimid-2-yl)valeramidine]",toxic symptoms,anaesthetised rats,No toxic symptoms
same,toxic symptoms,conscious mice,No toxic symptoms
